Assay results published in US11008346B2, “Beta-lactamase inhibitors” (priority 2014, dated 2021).

How the values were obtained:
[1] = molecular target: T1, SHV-5 β-lactamase (Klebsiella pneumoniae, UniProt P0A3M1); assay: β-lactamase enzyme inhibition, SHV-5; type: biochemical
T1 construct: made in house; host or cells: E. coli BL21(DE3)
Method in brief: (§1)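 Enzyme + inhibitor, 15 min, 37° C; substrate added, absorbance read 10 min. OXA-1/p99 AmpC: nitrocefin 100 μM final, A486. KPC-2: imipenem, A300. SHV-5: cefotaxime, A260. IC50 = 50% drop in initial hydrolysis rate vs no-inhibitor control.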

[2] = molecular target: T2, KPC-2 β-lactamase (Klebsiella pneumoniae, UniProt Q9F663); assay: β-lactamase enzyme inhibition, KPC-2; type: biochemical; conditions: imipenem substrate, 300 nm; 15 min at 37° C. preincubation; read-out: IC50 KPC-2 (Class A)
T2 construct: made in house; host or cells: E. coli BL21(DE3)
T2 sequence (Q9F663 25-293, looked up): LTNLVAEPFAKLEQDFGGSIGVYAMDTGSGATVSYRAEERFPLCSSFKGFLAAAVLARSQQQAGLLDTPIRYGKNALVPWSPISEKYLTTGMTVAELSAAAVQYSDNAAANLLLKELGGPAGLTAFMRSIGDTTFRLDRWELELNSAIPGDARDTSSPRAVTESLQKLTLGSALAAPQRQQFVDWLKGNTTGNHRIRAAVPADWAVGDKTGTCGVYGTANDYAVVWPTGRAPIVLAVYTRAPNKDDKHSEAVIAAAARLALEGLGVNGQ
Method in brief: as §1

[3] = molecular target: T3, VIM-2 metallo β-lactamase (Pseudomonas aeruginosa, UniProt Q9K2N0); assay: β-lactamase enzyme inhibition, VIM-2; type: biochemical; conditions: Nitrocefin 100 μM, 486 nm; 15 min at 37° C. preincubation; read-out: IC50 VIM-2 (Class B)
T3 construct: made in house; host or cells: E. coli BL21(DE3)
Method in brief: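 Inhibitor and enzyme sat together 15 min at 37° C before 100 μM nitrocefin (final) was added and 486 nm absorbance read for 10 min. IC50 is the concentration halving initial hydrolysis rate relative to uninhibited wells. Protein came from Q sepharose anion exchange at pH 7.5, repeated to >90% purity.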

[4] = molecular target: T4, p99 AmpC β-lactamase (Enterobacter cloacae, UniProt P05364); assay: β-lactamase enzyme inhibition, p99 AmpC; type: biochemical
T4 construct: made in house; host or cells: E. coli BL21(DE3)
T4 sequence (P05364 21-381): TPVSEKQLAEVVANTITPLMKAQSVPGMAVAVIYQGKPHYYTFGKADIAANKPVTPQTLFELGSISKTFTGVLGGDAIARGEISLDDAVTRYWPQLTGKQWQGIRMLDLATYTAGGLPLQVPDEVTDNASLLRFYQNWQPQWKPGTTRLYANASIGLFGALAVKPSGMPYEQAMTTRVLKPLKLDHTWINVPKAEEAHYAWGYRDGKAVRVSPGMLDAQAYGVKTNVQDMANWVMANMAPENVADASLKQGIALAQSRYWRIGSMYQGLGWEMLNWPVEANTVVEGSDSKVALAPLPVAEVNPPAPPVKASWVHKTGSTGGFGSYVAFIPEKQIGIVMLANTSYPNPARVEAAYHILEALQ
Method in brief: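 Inhibitor and enzyme were incubated 15 min at 37°C first. The enzyme was recombinant p99 AmpC, untagged, from E. coli BL21(DE3), purified by ion-exchange and size-exclusion chromatography.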

[5] = molecular target: T5, OXA-1 β-lactamase (Escherichia coli, UniProt P13661); assay: β-lactamase enzyme inhibition, OXA-1; type: biochemical; conditions: Nitrocefin 100 μM, 486 nm; 15 min at 37° C. preincubation; read-out: IC50 OXA-1 (Class D)
T5 construct: made in house; host or cells: E. coli BL21(DE3)
T5 sequence (P13661 26-276): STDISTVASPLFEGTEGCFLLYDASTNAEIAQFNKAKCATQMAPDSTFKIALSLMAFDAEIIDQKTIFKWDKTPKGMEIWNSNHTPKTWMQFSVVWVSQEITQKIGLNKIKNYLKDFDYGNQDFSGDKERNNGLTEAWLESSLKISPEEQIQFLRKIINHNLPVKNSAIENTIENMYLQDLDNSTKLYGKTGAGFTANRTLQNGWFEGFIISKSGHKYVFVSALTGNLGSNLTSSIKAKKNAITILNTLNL
Method in brief: as §1

[6] = tested on: E. coli ESBL4 expressing CTX-M-15; assay: broth microdilution MIC, E. coli CTX-M-15; type: cell-based; conditions: Fixed CAZ (ceftazidime) 4 μg/mL
Method in brief: (§2)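 First, strains were grown 3-5 hours in CAMHB; then compound dilutions (32 to 0.25 μg/mL final) received a beta-lactam overlay at 4 μg/mL final. Finally, plates were inoculated per CLSI and incubated 16-20 hours at 37° C.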

[7] = tested on: E. cloacae 144200 expressing Class C P99 AmpC; assay: broth microdilution MIC, E. cloacae P99; type: cell-based; conditions: Fixed CAZ (ceftazidime) 4 μg/mL
Method in brief: as §2

[8] = tested on: K. pneumoniae 156319 expressing KPC-3; assay: broth microdilution MIC, K. pneumoniae KPC-3; type: cell-based; conditions: Fixed Mero (meropenem) 4 μg/mL
Method in brief: as §2

[9] = tested on: P. aeruginosa Ps296 expressing VIM-2; assay: broth microdilution MIC, P. aeruginosa VIM-2; type: cell-based; conditions: Fixed Mero (meropenem) 4 μg/mL
Method in brief: as §2

[10] = tested on: K. pneumoniae A-1797 expressing KPC-2 and VIM-4; assay: broth microdilution MIC, K. pneumoniae KPC-2 and VIM-4; type: cell-based; conditions: Fixed Mero (meropenem) 4 μg/mL
Method in brief: as §2

[11] = tested on: S. aureus MSSA-7 producing penicillinase PC-1; assay: broth microdilution MIC, S. aureus PC-1; type: cell-based; conditions: Fixed Pip (piperacillin) 4 μg/mL
Method in brief: as §2

T1 sequence (P0A3M1 22-286): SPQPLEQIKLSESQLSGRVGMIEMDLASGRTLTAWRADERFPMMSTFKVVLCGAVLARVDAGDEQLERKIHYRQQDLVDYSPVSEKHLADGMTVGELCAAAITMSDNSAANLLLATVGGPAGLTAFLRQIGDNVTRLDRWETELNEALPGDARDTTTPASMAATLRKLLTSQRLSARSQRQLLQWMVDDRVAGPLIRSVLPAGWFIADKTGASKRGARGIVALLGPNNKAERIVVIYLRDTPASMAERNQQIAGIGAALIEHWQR

Row | SMILES | IC50 [1] | IC50 [2] | IC50 [3] | IC50 [4] | IC50 [5] | MIC of exemplary compounds in presence of fixed β-lactams, E. coli ESBL4 CTX-M-15 [6] | MIC of exemplary compounds in presence of fixed β-lactams, E. cl. 144200 p99 AmpC [7] | MIC of exemplary compounds in presence of fixed β-lactams, K.P. 156319 KPC-3 [8] | MIC of exemplary compounds in presence of fixed β-lactams, P. aerug. Ps296 VIM-2 [9] | MIC of exemplary compounds in presence of fixed β-lactams, K.P. A-1797 KPC-2 VIM-4 [10] | MIC of exemplary compounds in presence of fixed β-lactams, S. aureus MSSA-7 PC-1 [11]
1 | O=C(CC(F)(F)F)N[C@H]1Cc2cccc(C(=O)O)c2OB1O [Example 4, (R)-2-Hydroxy-3-(3,3,3-trifluoro-propionylamino)-3,4-dihydro-2H-benzo[e][1,2]oxaborinine-8-carboxylic acid] | < 100 nM | 100 to 1000 nM | 1000 to 10000 nM | < 100 nM | < 100 nM | C (C represents the MIC in the presence of ≤4 g/mL of a β-lactamase inhibitor) | C (C represents the MIC in the presence of ≤4 g/mL of a β-lactamase inhibitor) | C (C represents the MIC in the presence of ≤4 g/mL of a β-lactamase inhibitor) | C (C represents the MIC in the presence of ≤4 g/mL of a β-lactamase inhibitor) | B (B represents the MIC in the presence of between 8 and 32 g/mL of a β-lactamase inhibitor) | C (C represents the MIC in the presence of ≤4 g/mL of a β-lactamase inhibitor)
2 | O=C(CCc1cocn1)N[C@H]1Cc2cccc(C(=O)O)c2OB1O [Example 45, (R)-2-Hydroxy-3-(3-oxazol-4-yl-propionylamino)-3,4-dihydro-2H-benzo[e][1,2]oxaborinine-8-carboxylic acid] | < 100 nM | < 100 nM | 1000 to 10000 nM | < 100 nM | < 100 nM | C (C represents the MIC in the presence of ≤4 g/mL of a β-lactamase inhibitor) | C (C represents the MIC in the presence of ≤4 g/mL of a β-lactamase inhibitor) | C (C represents the MIC in the presence of ≤4 g/mL of a β-lactamase inhibitor) | C (C represents the MIC in the presence of ≤4 g/mL of a β-lactamase inhibitor) | B (B represents the MIC in the presence of between 8 and 32 g/mL of a β-lactamase inhibitor) | C (C represents the MIC in the presence of ≤4 g/mL of a β-lactamase inhibitor)
3 | CC(O)(O)C(=O)N[C@H]1Cc2cccc(C(=O)O)c2OB1O [Example 3, (R)-3-(2,2-Dihydroxy-propionylamino)-2-hydroxy-3,4-dihydro-2H-benzo[e][1,2]oxaborinine-8-carboxylic acid] | 100 to 1000 nM | 100 to 1000 nM | 1000 to 10000 nM | < 100 nM | < 100 nM | C (C represents the MIC in the presence of ≤4 g/mL of a β-lactamase inhibitor) | C (C represents the MIC in the presence of ≤4 g/mL of a β-lactamase inhibitor) | C (C represents the MIC in the presence of ≤4 g/mL of a β-lactamase inhibitor) | C (C represents the MIC in the presence of ≤4 g/mL of a β-lactamase inhibitor) | A (A represents an MIC of the fixed β-lactam antibiotic in the presence of >32 g/mL of a β-lactamase inhibitor) | C (C represents the MIC in the presence of ≤4 g/mL of a β-lactamase inhibitor)
4 | O=C(CN1CCOC1=O)N[C@H]1Cc2cccc(C(=O)O)c2OB1O [Example 30, (R)-2-Hydroxy-3-[2-(2-oxo-oxazolidin-3-yl)-acetylamino]-3,4-dihydro-2H-benzo[e][1,2]oxaborinine-8-carboxylicacid] | < 100 nM | < 100 nM | 100 to 1000 nM | < 100 nM | < 100 nM | C (C represents the MIC in the presence of ≤4 g/mL of a β-lactamase inhibitor) | C (C represents the MIC in the presence of ≤4 g/mL of a β-lactamase inhibitor) | C (C represents the MIC in the presence of ≤4 g/mL of a β-lactamase inhibitor) | C (C represents the MIC in the presence of ≤4 g/mL of a β-lactamase inhibitor) | C (C represents the MIC in the presence of ≤4 g/mL of a β-lactamase inhibitor) | C (C represents the MIC in the presence of ≤4 g/mL of a β-lactamase inhibitor)
5 | CC(C)(Cl)CCC(=O)N[C@H]1Cc2cccc(C(=O)O)c2OB1O [Example 24, (R)-3-(4-chloro-4-methylpentanamido)-2-hydroxy-3,4-dihydro-2H-benzo[e][1,2]oxaborinine-8-carboxylicacid] | < 100 nM | < 100 nM | 1000 to 10000 nM | < 100 nM | < 100 nM | C (C represents the MIC in the presence of ≤4 g/mL of a β-lactamase inhibitor) | C (C represents the MIC in the presence of ≤4 g/mL of a β-lactamase inhibitor) | C (C represents the MIC in the presence of ≤4 g/mL of a β-lactamase inhibitor) | B (B represents the MIC in the presence of between 8 and 32 g/mL of a β-lactamase inhibitor) | B (B represents the MIC in the presence of between 8 and 32 g/mL of a β-lactamase inhibitor) | C (C represents the MIC in the presence of ≤4 g/mL of a β-lactamase inhibitor)
6 | CON=C(C)CCC(=O)N[C@H]1Cc2cccc(C(=O)O)c2OB1O [Example 18, (R)-2-Hydroxy-3-(4-methoxyimino-pentanoylamino)-3,4-dihydro-2H-benzo[e][1,2]oxaborinine-8-carboxylic acid] | < 100 nM | < 100 nM | 1000 to 10000 nM | < 100 nM | < 100 nM | C (C represents the MIC in the presence of ≤4 g/mL of a β-lactamase inhibitor) | C (C represents the MIC in the presence of ≤4 g/mL of a β-lactamase inhibitor) | C (C represents the MIC in the presence of ≤4 g/mL of a β-lactamase inhibitor) | B (B represents the MIC in the presence of between 8 and 32 g/mL of a β-lactamase inhibitor) | A (A represents an MIC of the fixed β-lactam antibiotic in the presence of >32 g/mL of a β-lactamase inhibitor) | C (C represents the MIC in the presence of ≤4 g/mL of a β-lactamase inhibitor)
